Experimental data: patent US8287923B2, “Compositions and methods for treating immune disorders” (priority 2005, dated 2012)

System: normal human epidermal keratinocytes (NHEK)
Experiment: Affymetrix gene array analysis, autoantigen gene expression
Format: cell-based
Details: 100 μM
Method: The gene array experiment was performed at the Core Facility of Genomics of the Medical College of Georgia, according to the instructions of the manufacturer (Affymetrix, Santa Clara, Calif.). Briefly, NHEK and OSC2 cells treated with 100 μM EGCG for different time period were extracted for total RNA, the RNA was processed for probes and hybridized with a cDNA microarray (HuG133A, Affymetrix) which represents 22,283 human series. DNA chips were read with a Hewlett-Packard GeneArray Scanner at a resolution of […] and were analyzed with the GeneSpring software (Silicon Genetics, Redwood City, Calif.). Details of this analysis will be published elsewhere (Hsu et al., manuscript in preparation).
Gene assays provide a valuable tool for studying the broad response of cells to agents, and we have used this approach to compare the differential effects of GTPP on gene expression in NHEK and human oral squamous carcinoma cells (Hsu, et al, manuscript in preparation). […] See also Hsu, S. et al. (2005) JPET 315:805-811, which is incorporated by reference in its entirety.

RNA polymerase 1 (202692_s-at) expression, normalized (2 h): 0.48
ADPRT [poly(ADP)-ribose polymerase] expression (2 h, vs time zero): 1.201 fold
SMILES: O=C(O[C@@H]1Cc2c(O)cc(O)cc2O[C@@H]1c1cc(O)c(O)c(O)c1)c1cc(O)c(O)c(O)c1 [EGCG, (−)-epigallocatechin-3-gallate]
60 kDa, SS-A/Ro (210438_x_at) expression, normalized (2 h): 0.92
60 kDa, SS-A/Ro (212852_s_at) expression, normalized (2 h): 0.98
Ku autoantigen, 80 kDa (208642_s_at) expression, normalized (2 h): 1.14
Ku autoantigen, 80 kDa (208643_s_at) expression, normalized (2 h): 1.40
Nuclear antigen SP100 (202863_at) expression, normalized (2 h): 1.04
Nuclear antigen SP100 (202864_s_at) expression, normalized (2 h): 1.21
Nuclear antigen SP10075 kDa (213226_at) expression, normalized (2 h): 1.09
SS-B/La (201138_s_at) expression, normalized (2 h): 0.88
SS-B/La (201139_s_at) expression, normalized (2 h): 0.74
centromere protein C1 (20473_at) expression, normalized (2 h): 0.46
coilin (203653_s_at) expression, normalized (2 h): 0.54
coilin (203654_s_at) expression, normalized (2 h): 0.78
fodrin-α (208611_s_at) expression, normalized (2 h): 0.75
fodrin-α (215235_s_at) expression, normalized (2 h): 0.97
golgin-67 (208797_s_at) expression, normalized (2 h): 0.71
golgin-67 (208798_x_at) expression, normalized (2 h): 0.46
golgin-67 (210425_x_at) expression, normalized (2 h): 0.47
golgin-67 (213650_at) expression, normalized (2 h): 0.61
scleroderma autoantigen 1, 75 kDa (213226_at) expression, normalized (2 h): 1.09
spectrin-β non-erythrocyctic 1 (212071_s_at) expression, normalized (2 h): 0.92
thyroid autoantigen 70 kDa (Ku antigen) (200792_at) expression, normalized (2 h): 1.19
ANAP12 expression (2 h, vs time zero): 0.991 fold
ANXA11 expression (2 h, vs time zero): 1.26 fold
CALR expression (2 h, vs time zero): 0.943 fold
CBARA1 expression (2 h, vs time zero): 0.773 fold
CENPA expression (2 h, vs time zero): 1.095 fold
CENPB expression (2 h, vs time zero): 0.773 fold
CENPC1 expression (2 h, vs time zero): 0.457 fold
CHD4 expression (2 h, vs time zero): 0.811 fold
COL17A1 expression (2 h, vs time zero): 1.102 fold
CTDSP1 expression (2 h, vs time zero): 1.00 fold
CTDSP2 expression (2 h, vs time zero): 1.21 fold
CTDSPL expression (2 h, vs time zero): 1.12 fold
DLAT expression (2 h, vs time zero): 0.924 fold
EPPK1 expression (2 h, vs time zero): 0.856 fold
FBL expression (2 h, vs time zero): 1.12 fold
FLJ31657 expression (2 h, vs time zero): 0.608 fold
FLNB (Filamin B, β) expression (2 h, vs time zero): 1.168 fold
FLNB (Filamin B, γ) expression (2 h, vs time zero): 0.92 fold
G22P1 (Thyroid autoantigen, 70 kDa, Ku antigen) expression (2 h, vs time zero): 1.185 fold
GMEB2 expression (2 h, vs time zero): 0.739 fold
GOLGA1 expression (2 h, vs time zero): 0.182 fold
GOLGA2 expression (2 h, vs time zero): 0.642 fold
GOLGA3 expression (2 h, vs time zero): 0.58 fold
GOLGA4 expression (2 h, vs time zero): 0.748 fold
GOLGA5 expression (2 h, vs time zero): 0.928 fold
GOLGB1 expression (2 h, vs time zero): 0.704 fold
HARS expression (2 h, vs time zero): 1.11 fold
HARSL expression (2 h, vs time zero): 1.05 fold
HSA6591 expression (2 h, vs time zero): 0.835 fold
HUMAUANTIG expression (2 h, vs time zero): 0.779 fold
IMP-2 expression (2 h, vs time zero): 1.366 fold
LAD1 expression (2 h, vs time zero): 0.681 fold
LMO4 expression (repeat 1) (2 h, vs time zero): 0.867 fold
LMO4 expression (repeat 2) (2 h, vs time zero): 1.199 fold
MGC5560 expression (repeat 1) (2 h, vs time zero): 1.161 fold
MGC5560 expression (repeat 2) (2 h, vs time zero): 0.932 fold
NS (Nucleostemin) expression (2 h, vs time zero): 0.95 fold
PDHB expression (2 h, vs time zero): 1.14 fold
PDX1 expression (2 h, vs time zero): 0.765 fold
PMSCL1, 75 kDa expression (2 h, vs time zero): 1.09 fold
PMSCL2 expression (2 h, vs time zero): 0.938 fold
POLR1B expression (2 h, vs time zero): 1.03 fold
POLR1D expression (2 h, vs time zero): 0.96 fold
POLR2A expression (repeat 1) (2 h, vs time zero): 1.29 fold
POLR2A expression (repeat 2) (2 h, vs time zero): 0.45 fold
POLR2B expression (2 h, vs time zero): 1.02 fold
POLR2C expression (2 h, vs time zero): 1.60 fold
POLR2D expression (2 h, vs time zero): 0.95 fold
POLR2E expression (2 h, vs time zero): 0.70 fold
POLR2F expression (2 h, vs time zero): 1.00 fold
POLR2G expression (2 h, vs time zero): 1.02 fold
POLR2H expression (2 h, vs time zero): 0.85 fold
POLR3C expression (2 h, vs time zero): 0.73 fold
POLR3G expression (2 h, vs time zero): 1.00 fold
PSME3 expression (2 h, vs time zero): 1.151 fold
RALY expression (2 h, vs time zero): 0.752 fold
SART1 expression (2 h, vs time zero): 1.188 fold
SLC25A16 expression (2 h, vs time zero): 0.886 fold
SNRP70 expression (2 h, vs time zero): 1.01 fold
SNRPA expression (2 h, vs time zero): 0.93 fold
SNRPB2 expression (2 h, vs time zero): 0.67 fold
SNRPB expression (repeat 1) (2 h, vs time zero): 0.95 fold
SNRPB expression (repeat 2) (2 h, vs time zero): 0.79 fold
SNRPC expression (2 h, vs time zero): 1.08 fold
SNRPD1 expression (repeat 1) (2 h, vs time zero): 1.285 fold
SNRPD1 expression (repeat 2) (2 h, vs time zero): 0.676 fold
SOX13 expression (2 h, vs time zero): 0.771 fold
SP100 expression (repeat 1) (2 h, vs time zero): 1.037 fold
SP100 expression (repeat 2) (2 h, vs time zero): 1.205 fold
SP110 expression (repeat 1) (2 h, vs time zero): 1.702 fold
SP110 expression (repeat 2) (2 h, vs time zero): 1.804 fold
SP110 expression (repeat 3) (2 h, vs time zero): 1.026 fold
SPTAN1 (α-fodrin) expression (repeat 1) (2 h, vs time zero): 0.75 fold
SPTAN1 (α-fodrin) expression (repeat 2) (2 h, vs time zero): 0.97 fold
SPTBN expression (2 h, vs time zero): 0.92 fold
SSA2 (autoantigen SS-A/Ro) expression (repeat 2) (2 h, vs time zero): 0.919 fold
SSA2 expression (repeat 1) (2 h, vs time zero): 0.335 fold
SSA2 expression (repeat 3) (2 h, vs time zero): 0.957 fold
SSA2 expression (repeat 4) (2 h, vs time zero): 0.98 fold
SSB (autoantigen La) expression (repeat 1) (2 h, vs time zero): 0.878 fold
SSB (autoantigen La) expression (repeat 2) (2 h, vs time zero): 0.739 fold
SSNA1 expression (2 h, vs time zero): 1.17 fold
SSSCA1 expression (2 h, vs time zero): 1.694 fold
STRN3 expression (2 h, vs time zero): 0.623 fold
TOP1 expression (repeat 1) (2 h, vs time zero): 1.09 fold
TOP1 expression (repeat 2) (2 h, vs time zero): 0.62 fold
UBTF expression (2 h, vs time zero): 0.484 fold
XRCC5 (Ku autoantigen, 80 kDa) expression (repeat 1) (2 h, vs time zero): 1.403 fold
XRCC5 (Ku autoantigen, 80 kDa) expression (repeat 2) (2 h, vs time zero): 1.141 fold
dJ963E22.1 expression (2 h, vs time zero): 0.864 fold
α-NAC expression (2 h, vs time zero): 0.521 fold
60 kDa, SS-A/Ro (210438_x_at) expression, normalized (6 h): 0.69
